Data published in US10364212B2 (F.I.S.—FABBRICA ITALIANA SINTETICI S.P.A., priority 2016, dated 2019).
Values joined by “and” are separate entries in the source; they are usually repeats but may differ in a detail not shown here. Equal values may be shown once. “Also recorded” adds a separate entry of the source.

Tests used:
Format in all cases: physicochemical
[1] = Kinetic solubility study in water, HPLC area of Enclomiphene peak;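 for HPLC a/a: suspension in 24 mL Water and the filtered mother liquor analysed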;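 for average HPLC a/a: suspension in 24 mL Water and the filtered mother liquor analysed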
Description: (§1) The filtered solid was analyzed by XRPD.
These HPLC conditions were used to perform solubility analysis.

[2] = Kinetic solubility study at pH 4.5 (acetic acid/sodium acetate buffer), HPLC area
Description: as §1
Solubility at a slightly acid medium was determined at pH 4.5 buffer used was a mixture acetic acid/sodium acetate prepared according to USP specifications. […]

[3] = Hygroscopicity by DVS (Dynamic Vapour Sorption); settings: for water uptake / moisture sorption: at 95% RH (0-95% RH); for hygroscopicity, comparison of batches 722 and 723: between 0 and 65% RH
Description: This is a gravimetric technique that measures how much water is absorbed or desorbed by a sample at different relative humidity (RH). At each RH, the sample mass must be allowed to reach gravimetric equilibrium (or surpassed time limit) before progressing to the next humidity level. Sorption and desorption isotherms will be performed at 25° C. over a range of 0-95% RH. The type of sorption isotherm is determined by the pore size and surface character of the material.

With CCN(CC)CCOc1ccc(/C(=C(/Cl)c2ccccc2)c2ccccc2)cc1.O=C(O)CC(O)(CC(=O)O)C(=O)O [Enclomiphene citrate having non-needle crystals] [Ethanamine, 2-[4-[(1E)-2-chloro-1,2-diphenylethenyl]phenoxy]-N,N-diethyl-, 2-hydroxy-1,2,3-propanetricarboxylate (1:1), reference compound] the “average HPLC a/a” value ([1]; 0 min) was 0 a/a, the HPLC a/a ([1]; 0 min, replicate 1) was 0 a/a and the HPLC a/a ([1]; 0 min, replicate 2) was 0 a/a. For the same molecule, the HPLC a/a ([1]; 0 min, replicate 3) was 0 a/a, the “average HPLC a/a” value ([1]; 15 min) was 2858 a/a and the HPLC a/a ([1]; 15 min, replicate 1) was 1819 a/a. The HPLC a/a ([1]; 15 min, replicate 2) was 3483 a/a, the HPLC a/a ([1]; 15 min, replicate 3) was 3273 a/a and the “average HPLC a/a” value ([1]; 45 min) was 3226 a/a. It also gave an HPLC a/a ([1]; 45 min, replicate 1) of 3083 a/a, an HPLC a/a ([1]; 45 min, replicate 2) of 3370 a/a and an HPLC a/a ([1]; 45 min, replicate 3) of 3225 a/a. The “average HPLC a/a” value ([1]; 90 min) was 2772 a/a, the HPLC a/a ([1]; 90 min, replicate 1) was 3229 a/a and the HPLC a/a ([1]; 90 min, replicate 2) was 2099 a/a. For the same molecule, the HPLC a/a ([1]; 90 min, replicate 3) was 2988 a/a, the “average HPLC a/a” value ([1]; 180 min) was 3265 a/a and the HPLC a/a ([1]; 180 min, replicate 1) was 2991 a/a. The HPLC a/a ([1]; 180 min, replicate 2) was 3597 a/a, the HPLC a/a ([1]; 180 min, replicate 3) was 3208 a/a and the Average a/a ([2]; pH 4.5, 0 min) was 0 a/a. It also gave an HPLC a/a ([2]; pH 4.5, 0 min, replicate 1) of 0 a/a, an HPLC a/a ([2]; pH 4.5, 0 min, replicate 2) of 0 a/a and an Average a/a ([2]; pH 4.5, 15 min) of 1185 a/a. For the same molecule, the HPLC a/a ([2]; pH 4.5, 15 min, replicate 1) was 1294 a/a, the HPLC a/a ([2]; pH 4.5, 15 min, replicate 2) was 1077 a/a and the Average a/a ([2]; pH 4.5, 45 min) was 924 a/a. It also gave an HPLC a/a ([2]; pH 4.5, 45 min, replicate 1) of 907 a/a, an HPLC a/a ([2]; pH 4.5, 45 min, replicate 2) of 941 a/a and an Average a/a ([2]; pH 4.5, 90 min) of 1095 a/a. The HPLC a/a ([2]; pH 4.5, 90 min, replicate 1) was 1279 a/a, the HPLC a/a ([2]; pH 4.5, 90 min, replicate 2) was 912 a/a and the Average a/a ([2]; pH 4.5, 180 min) was 1052 a/a. For the same molecule, the HPLC a/a ([2]; pH 4.5, 180 min, replicate 1) was 1008 a/a, the HPLC a/a ([2]; pH 4.5, 180 min, replicate 2) was 1096 a/a and the “water uptake / moisture sorption” value ([3]; DVS, 25° C., listed as batch 722) was 6 % weight. For the same molecule, the moisture sorption ([3]; DVS, 25° C., between 0% and 65% RH) was 2 % weight, the “hygroscopicity, comparison of batches 722 and 723” value ([3]; DVS) was “identical” and the “water absorption at high humidity” value ([3]; humidity higher than 65% RH (FIG. 9)) was “absorbs relevant amounts of water”.
For CCN(CC)CCOc1ccc(/C(=C(/Cl)c2ccccc2)c2ccccc2)cc1.O=C(O)CC(O)(CC(=O)O)C(=O)O [Enclomiphene citrate having needle crystals] [Ethanamine, 2-[4-[(1E)-2-chloro-1,2-diphenylethenyl]phenoxy]-N,N-diethyl-, 2-hydroxy-1,2,3-propanetricarboxylate (1:1)], the “average HPLC a/a” value ([1]; 0 min) was 0 a/a, the HPLC a/a ([1]; 0 min, replicate 1) was 0 a/a and the HPLC a/a ([1]; 0 min, replicate 2) was 0 a/a. For the same molecule, the HPLC a/a ([1]; 0 min, replicate 3) was 0 a/a, the “average HPLC a/a” value ([1]; 15 min) was 5152 a/a and the HPLC a/a ([1]; 15 min, replicate 1) was 4099 a/a. The HPLC a/a ([1]; 15 min, replicate 2) was 6104 a/a, the HPLC a/a ([1]; 15 min, replicate 3) was 3273 a/a and the “average HPLC a/a” value ([1]; 45 min) was 4962 a/a. It also gave an HPLC a/a ([1]; 45 min, replicate 1) of 5206 a/a, an HPLC a/a ([1]; 45 min, replicate 2) of 5457 a/a and an HPLC a/a ([1]; 45 min, replicate 3) of 3225 a/a. For the same molecule, the “average HPLC a/a” value ([1]; 90 min) was 5334 a/a, the HPLC a/a ([1]; 90 min, replicate 1) was 5085 a/a and the HPLC a/a ([1]; 90 min, replicate 2) was 5426 a/a. The HPLC a/a ([1]; 90 min, replicate 3) was 2988 a/a, the “average HPLC a/a” value ([1]; 180 min) was 4126 a/a and the HPLC a/a ([1]; 180 min, replicate 1) was 4120 a/a. The HPLC a/a ([1]; 180 min, replicate 2) was 5327 a/a, the HPLC a/a ([1]; 180 min, replicate 3) was 3208 a/a and the “solubility in water compared with Enclomiphene citrate having non-needle shaped crystal habit” value ([1]; listed as Enclomiphene citrate having needle shaped crystal habit) was “almost double; also recorded: almost two times”. The Average a/a ([2]; pH 4.5, 0 min) was 0 a/a, the HPLC a/a ([2]; pH 4.5, 0 min, replicate 1) was 0 a/a and the HPLC a/a ([2]; pH 4.5, 0 min, replicate 2) was 0 a/a. For the same molecule, the Average a/a ([2]; pH 4.5, 15 min) was 4135 a/a, the HPLC a/a ([2]; pH 4.5, 15 min, replicate 1) was 3941 a/a and the HPLC a/a ([2]; pH 4.5, 15 min, replicate 2) was 4330 a/a. For the same molecule, the Average a/a ([2]; pH 4.5, 45 min) was 4024 a/a, the HPLC a/a ([2]; pH 4.5, 45 min, replicate 1) was 3978 a/a and the HPLC a/a ([2]; pH 4.5, 45 min, replicate 2) was 4070 a/a. The Average a/a ([2]; pH 4.5, 90 min) was 5109 a/a, the HPLC a/a ([2]; pH 4.5, 90 min, replicate 1) was 4889 a/a and the HPLC a/a ([2]; pH 4.5, 90 min, replicate 2) was 5329 a/a. For the same molecule, the Average a/a ([2]; pH 4.5, 180 min) was 5079 a/a, the HPLC a/a ([2]; pH 4.5, 180 min, replicate 1) was 5098 a/a and the HPLC a/a ([2]; pH 4.5, 180 min, replicate 2) was 5060 a/a. For the same molecule, the “solubility at pH 4.5 compared with Enclomiphene citrate having non-needle crystals” value ([2]; pH 4.5 buffer, listed as Enclomiphene citrate having needle shaped crystal habit) was “four times higher”, the “water uptake / moisture sorption” value ([3]; DVS, 25° C., listed as batch 723) was 2.33 % weight and 2.3 % weight and the “hygroscopicity, comparison of batches 722 and 723” value ([3]; DVS) was “identical”.
